In patent US10174307B2, “Performance enhancing genetic variants of E. coli” (priority 2014, dated 2019) one finds MIC data, which are given here for one compound.

This assay concerns E. coli. Nature of the assay: Erythromycin MIC quoted in legend of growth assay with and without erythromycin. The format is cell-based. As to conditions: Escherichia coli. The method, then:
E. coli MG1655 was used as wild-type. The ALE selected rpoBE564V and rpoBE672K knock in strains were previously constructed by allelic replacement^7. To generate additional variants of […] and 672 positions, MAGE was performed on the wild-type strain by first transformation of recombineering plasmid pKD46^46, then inactivation of mutS with two nonsense mutations at residues 189 and 191 using an oligo (mutS_MUT). […] To perform each cycle of MAGE, the 1-Red system was induced with 0.5%-arabinose 45 minutes prior to generation of electrocompetent cells and oligo. Batch cultures were done in flask with M9 minimal media and 4 g/L of glucose at 37° C. or LB rich media. Glucose limited chemostats were carried out in a Bioflo 110 fermentor (New Brunswick Scientific, NJ). Glucose supplemented M9 was added to the reactor at 0.31 and 0.44 h^−1 dilution rates controlled by a peristaltic pump. Steady state was achieved after 3-5 residence times and was verified by biomass measurements. Phenotypic tests were performed by inoculation of media with an overnight pre-culture of glucose M9 media for all cases. Erythromycin was added to the media to the indicated concentration. The pH of M9 was adjusted to the indicated value with 6M HCl. Different substrates and mixtures were added to M9 to test growth in the indicated conditions. […]

Converted amounts (≈) assume the structure as drawn.

As for `CC[C@H]1OC(=O)[C@H](C)[C@@H](O[C@H]2C[C@@](C)(OC)[C@@H](O)[C@H](C)O2)[C@H](C)[C@@H](O[C@@H]2O[C@H](C)C[C@H](N(C)C)[C@H]2O)[C@](C)(O)C[C@@H](C)C(=O)[C@H](C)[C@@H](O)[C@]1(C)O` [erythromycin], the MIC (as a rule, the lowest concentration found to suppress growth) lay within 512 to 1020 mg/L (≈ 698 to 1400 µM).
